Laboratory results: PubChem BioAssay (NCI)
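GI50 marks 50% less growth. TGI marks complete inhibition of growth.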

Columns and labels:
Assay in all cases: NCI tumour cell line growth inhibition, 384-well format
SN12C renal = test system: SN12C renal
A549 NSCLC = test system: A549 NSCLC
KM12 colon = test system: KM12 colon
NCI-H23 lung = test system: NCI-H23 lung
UACC-257 melanoma = test system: UACC-257 melanoma
CCRF-CEM leukemia = test system: CCRF-CEM leukemia
BT-549 breast = test system: BT-549 breast
NCI-H322M lung = test system: NCI-H322M lung
IGROV1 ovarian = test system: IGROV1 ovarian
786-0 renal = test system: 786-0 renal
SK-OV-3 ovarian = test system: SK-OV-3 ovarian
T-47D breast = test system: T-47D breast
HL-60(TB) leukemia = test system: HL-60(TB) leukemia
MDA-MB-231 breast = test system: MDA-MB-231 breast
MOLT-4 leukemia = test system: MOLT-4 leukemia
NCI-H460 NSCLC = test system: NCI-H460 NSCLC
HCC-2998 colon = test system: HCC-2998 colon
SK-MEL-5 melanoma = test system: SK-MEL-5 melanoma
SNB-75 CNS = test system: SNB-75 CNS
HT29 colon = test system: HT29 colon
OVCAR-4 ovarian = test system: OVCAR-4 ovarian
PC-3 prostate = test system: PC-3 prostate
MDA-MB-468 breast = test system: MDA-MB-468 breast
HOP-92 NSCLC = test system: HOP-92 NSCLC
SR leukemia = test system: SR leukemia
EKVX NSCLC = test system: EKVX NSCLC
MALME-3M melanoma = test system: MALME-3M melanoma
HCT-116 colon = test system: HCT-116 colon
HCT-15 colon = test system: HCT-15 colon
NCI/ADR-RES ovarian = test system: NCI/ADR-RES ovarian
K-562 leukemia = test system: K-562 leukemia
SW-620 colon = test system: SW-620 colon
HOP-62 NSCLC = test system: HOP-62 NSCLC
SF-295 CNS = test system: SF-295 CNS
LOX IMVI melanoma = test system: LOX IMVI melanoma
SNB-19 CNS = test system: SNB-19 CNS
RXF 393 renal = test system: RXF 393 renal
U251 glioblastoma = test system: U251 glioblastoma
ACHN renal = test system: ACHN renal
OVCAR-3 ovarian = test system: OVCAR-3 ovarian
OVCAR-5 ovarian = test system: OVCAR-5 ovarian
SK-MEL-2 melanoma = test system: SK-MEL-2 melanoma
SK-MEL-28 melanoma = test system: SK-MEL-28 melanoma
M14 melanoma = test system: M14 melanoma
DU-145 prostate = test system: DU-145 prostate
UO-31 renal = test system: UO-31 renal
UACC-62 melanoma = test system: UACC-62 melanoma

C[C@H](N)C(=O)N1C[C@H](CCCB(O)O)[C@](N)(C(=O)O)C1
GI50 (SN12C renal): > 100 µM | TGI (SN12C renal): > 100 µM | GI50 (A549 NSCLC): > 100 µM | TGI (A549 NSCLC): > 100 µM | GI50 (KM12 colon): > 100 µM | TGI (KM12 colon): > 100 µM | GI50 (NCI-H23 lung): > 100 µM | TGI (NCI-H23 lung): > 100 µM | GI50 (UACC-257 melanoma): > 100 µM | TGI (UACC-257 melanoma): > 100 µM | GI50 (CCRF-CEM leukemia): > 100 µM | TGI (CCRF-CEM leukemia): > 100 µM | GI50 (BT-549 breast): > 100 µM | TGI (BT-549 breast): > 100 µM | GI50 (NCI-H322M lung): > 100 µM | TGI (NCI-H322M lung): > 100 µM | GI50 (IGROV1 ovarian): > 100 µM | TGI (IGROV1 ovarian): > 100 µM | GI50 ([…]-0 renal): > 100 µM | TGI (786-0 renal): > 100 µM | GI50 (SK-OV-3 ovarian): > 100 µM | TGI (SK-OV-3 ovarian): > 100 µM | GI50 (T-47D breast): > 100 µM | TGI (T-47D breast): > 100 µM | GI50 (HL-60(TB) leukemia): > 87.2 µM | TGI (HL-60(TB) leukemia): > 100 µM | GI50 (MDA-MB-231 breast): > 100 µM | TGI (MDA-MB-231 breast): > 100 µM | GI50 (MOLT-4 leukemia): > 100 µM | TGI (MOLT-4 leukemia): > 100 µM | GI50 (NCI-H460 NSCLC): > 100 µM | TGI (NCI-H460 NSCLC): > 100 µM | GI50 (HCC-2998 colon): > 100 µM | TGI (HCC-2998 colon): > 100 µM | GI50 (SK-MEL-5 melanoma): > 100 µM | TGI (SK-MEL-5 melanoma): > 100 µM | GI50 (SNB-75 CNS): > 100 µM | TGI (SNB-75 CNS): > 100 µM | GI50 (HT29 colon): > 100 µM | TGI (HT29 colon): > 100 µM | GI50 (OVCAR-4 ovarian): > 100 µM | TGI (OVCAR-4 ovarian): > 100 µM | GI50 (PC-3 prostate): > 100 µM | TGI (PC-3 prostate): > 100 µM | GI50 (MDA-MB-468 breast): > 100 µM | TGI (MDA-MB-468 breast): > 100 µM | GI50 (HOP-92 NSCLC): > 100 µM | TGI (HOP-92 NSCLC): > 100 µM | GI50 (SR leukemia): > 100 µM | TGI (SR leukemia): > 100 µM | GI50 (EKVX NSCLC): > 100 µM | TGI (EKVX NSCLC): > 100 µM | GI50 (MALME-3M melanoma): > 100 µM | TGI (MALME-3M melanoma): > 100 µM | GI50 (HCT-116 colon): > 100 µM | TGI (HCT-116 colon): > 100 µM | GI50 (HCT-15 colon): > 100 µM | TGI (HCT-15 colon): > 100 µM | GI50 (NCI/ADR-RES ovarian): > 100 µM | TGI (NCI/ADR-RES ovarian): > 100 µM | GI50 (K-562 leukemia): > 100 µM | TGI (K-562 leukemia): > 100 µM | GI50 (SW-620 colon): > 100 µM | TGI (SW-620 colon): > 100 µM | GI50 (HOP-62 NSCLC): > 100 µM | TGI (HOP-62 NSCLC): > 100 µM | GI50 (SF-295 CNS): > 100 µM | TGI (SF-295 CNS): > 100 µM | GI50 (LOX IMVI melanoma): > 100 µM | TGI (LOX IMVI melanoma): > 100 µM | GI50 (SNB-19 CNS): > 100 µM | TGI (SNB-19 CNS): > 100 µM | GI50 (RXF 393 renal): > 100 µM | TGI (RXF 393 renal): > 100 µM | GI50 (U251 glioblastoma): > 100 µM | TGI (U251 glioblastoma): > 100 µM | GI50 (ACHN renal): > 100 µM | TGI (ACHN renal): > 100 µM | GI50 (OVCAR-3 ovarian): > 100 µM | TGI (OVCAR-3 ovarian): > 100 µM | GI50 (OVCAR-5 ovarian): > 100 µM | TGI (OVCAR-5 ovarian): > 100 µM | GI50 (SK-MEL-2 melanoma): > 100 µM | TGI (SK-MEL-2 melanoma): > 100 µM | GI50 (SK-MEL-28 melanoma): > 100 µM | TGI (SK-MEL-28 melanoma): > 100 µM | GI50 (M14 melanoma): > 86 µM | TGI (M14 melanoma): > 100 µM | GI50 (DU-145 prostate): > 100 µM | TGI (DU-145 prostate): > 100 µM | GI50 (UO-31 renal): > 100 µM | TGI (UO-31 renal): > 100 µM | GI50 (UACC-62 melanoma): > 100 µM | TGI (UACC-62 melanoma): > 100 µM
